# Assay results from US10364263B2, “Cyclic phosphates and cyclic phosphoramidates for the treatment of neurologic disorders” (Retrophin, Inc., priority 2015, dated 2019).
# Like-named read-outs stand apart in the source and are kept apart here.
# Assays:
# [1] = test system: PANK2 silenced human neuroblastoma IMR32 cells (PANK2−/−); assay: Coenzyme A assay in PANK2 silenced cells (LC-MS quantification of free CoA); assay type: cell-based; conditions: compound added twice (24 h + 24 h), relative to 0.1% DMSO controls
# Method in brief: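 PANK2 shRNA-silenced IMR32 neuroblastoma cells were treated with compound (0.1% DMSO) for 24 h, then re-dosed with fresh compound for a further 24 h at 37 °C. TFA extracts of 1×10^6 cells were assayed for free CoA by LC-MS/MS (MRM 768.1→261.6/136.1). Results are given as fold change versus DMSO controls.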
# [2] = Stability in human hepatocytes; assay type: in vitro ADME
# Procedure: Stability in hepatocytes for select compounds disclosed in the application was evaluated in two species (mouse and human) according to the following procedure. Compounds and positive control samples were dissolved in 100% DMSO at 5 mM. Cryopreserved hepatocytes were thawed and resuspended in Hepatocyte Basal Medium (HBM-Lonza CC-3199) supplemented with CC-4182 (complete hepatocyte culture medium). Test compounds were diluted into cell suspension (1 million cells/ml) from the stock solutions to have a test compound concentration of 5 μM (0.1% DMSO). Incubation was performed in 24-well plates, at 37° C. in a DUBNOFF water bath, under low shaking. Each compound was tested at 6 time points, in duplicates (0, 15, 30, 60, 120 and 240 min). At each time point, an aliquot of 120 μl was taken and transferred to a 96-well deep plate. The reaction was stopped with the addition of one volume of 100% acetonitrile plus 0.1% formic acid and the appropriate internal standard. Then samples were centrifuged at 1100×g for 30 min at +4° C. and supernatants were transferred to a new 96-deepwell plate. Samples were evaporated under N2 and reconstituted in H2O/ACN 0.1% Formic Acid (98:2). Analysis was performed without a calibration curve (Acquity UPLC-Waters; Sciex API4000). Time 0 was obtained adding acetonitrile before addition of the test compound. […] The half-life (t1/2) expressed in hours is derived using Equation 1 as shown in Example 64.
# [3] = Stability in mouse plasma; assay type: in vitro ADME
# Procedure: Compounds and positive control samples were dissolved in 100% DMSO at 3 mM. To investigate the stability of the test compounds in plasma, samples were made by diluting test compounds into plasma from the stock solutions to obtain a test compound concentration of 3 μM (0.1% DMSO). Before addition of a test compound, 990 μl of plasma were preincubated at 37° C. for 5 min in eppendorf. After addition of a test compound, 70 μl for each time point were transferred to a 96-deepwell plate, previously warmed at 37° C. in a DUBNOFF water bath. Each compound was tested at five time points, in duplicate (10, 20, 30, 40 and 60 min). At each time point, an aliquot of 50 μl was taken and transferred to a new 96-deepwell plate, and the reaction was stopped with 200 μl of 100% acetonitrile containing 0.1% formic acid and the appropriate internal standard. Then samples were centrifuged at 1100×g for 30 min at +4° C. and supernatants were transferred to a new 96-deepwell plate. Samples were evaporated under N2 and reconstituted in H2O/ACN 0.1% Formic Acid (98:2). Analysis was performed without a calibration curve (Acquity UPLC-Waters; SciexAPI4000). Time 0 was obtained by adding acetonitrile before addition of the test compound.
# [4] = Stability in human plasma; assay type: in vitro ADME; conditions: 37° C.; for t1/2, Human Plasma, Diastereoisomer B: 3 μM
# Method in brief: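 Test compound at 3 μM (0.1% DMSO) was incubated in mouse or human plasma at 37 °C and sampled in duplicate at 0, 10, 20, 30, 40 and 60 min. Reactions were stopped with acetonitrile/formic acid containing internal standard. Remaining parent was measured by UPLC-MS/MS without a calibration curve.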
# [5] = Diastereoisomer A (upfield shift in 31P NMR), 5 μM, 1 million cells/ml, 37° C., human hepatocytes, read-out: t1/2, Human Hepatocytes, Diastereoisomer A (converted)
# [6] = t1/2, Human Hepatocytes, Diastereoisomer A
# [7] = t1/2, Human Hepatocytes, Diastereoisomer B
# [8] = human, plasma, Diastereoisomer A (upfield shift in 31P NMR), read-out: t1/2, Human Plasma, Diastereoisomer A (converted)
# [9] = human, plasma, Diastereoisomer B, read-out: t1/2, Human Plasma, Diastereoisomer B (converted)
# [10] = Diastereoisomer A (upfield shift in 31P NMR), 3 μM, 37° C., mouse plasma, read-out: t1/2, Mouse Plasma, Diastereoisomer A
# [11] = Diastereoisomer A (upfield shift in 31P NMR), read-out: t1/2, Human Plasma, Diastereoisomer A (converted)
# [12] = Diastereoisomer B, 3 μM, 37° C., mouse plasma
SMILES,PANK2−/− CoA (Fold Increase): fold increase in Coenzyme A (CoA) levels relative to controls [1],"half-life at 3 µM ([3]; mouse, plasma)","half-life at 3 µM [4, 8]",other results
"COC(=O)CCNC(=O)[C@@H]1OP(=O)(Oc2ccc(F)cc2)OCC1(C)C (stereo partly drawn) [2-118, methyl 3-((4R)-2-(4-fluorophenoxy)-5,5-dimethyl-2-oxido-1,3,2-dioxaphosphinane-4-carboxamido)propanoate]",1.38 Fold Increase,,,"half-life at 5 µM [2, 5]: 33 min; half-life at 5 µM ([2]; Diastereoisomer B, 5 μM, 1 million cells/ml, 37° C., human hepatocytes, read-out: t1/2, Human Hepatocytes, Diastereoisomer B (converted)): 36 min"
"COC(=O)CCNC(=O)[C@@H]1O[P@@](=O)(Oc2ccc(C(F)(F)F)cc2)OCC1(C)C [2-119, methyl 3-((2S,4R)-5,5-dimethyl-2-oxido-2-(4-(trifluoromethyl)phenoxy)-1,3,2-dioxaphosphinane-4-carboxamido)propanoate]",1.67 Fold Increase,,,"half-life at 5 µM [2, 5]: 30.6 min"
"COC(=O)CCNC(=O)[C@@H]1OP(=O)(OCOC(=O)NCCSC(=O)C(C)(C)C)OCC1(C)C (stereo partly drawn) [2-143, methyl 3-((4R)-5,5-dimethyl-2-oxido-2-((((2-(pivaloylthio)ethyl)carbamoyl)oxy)methoxy)-1,3,2-dioxaphosphinane-4-carboxamido)propanoate]",1.39 Fold Increase,,,"half-life at 5 µM [2, 6]: 25.2 min; half-life at 5 µM [2, 7]: 19.2 min"
"COC(=O)CCNC(=O)[C@@H]1OP(=O)(OCOC(=O)c2scnc2C)OCC1(C)C (stereo partly drawn) [Compound No. 2-139, (((4R)-4-((3-methoxy-3-oxopropyl)carbamoyl)-5,5-dimethyl-2-oxido-1,3,2-dioxaphosphinan-2-yl)oxy)methyl 4-methylthiazole-5-carboxylate]",44.21 Fold Increase,,,"half-life at 5 µM [2, 6]: 30.6 min; half-life at 5 µM [2, 7]: 15.6 min"
"COC(=O)CCNC(=O)[C@@H]1OP(=O)(OCOC(=O)c2ccns2)OCC1(C)C (stereo partly drawn) [Compound No. 2-140, (((4R)-4-((3-methoxy-3-oxopropyl)carbamoyl)-5,5-dimethyl-2-oxido-1,3,2-dioxaphosphinan-2-yl)oxy)methyl isothiazole-5-carboxylate]",37.02 Fold Increase,,,"half-life at 5 µM [2, 6]: < 15 min; half-life at 5 µM [2, 7]: < 15 min"
"Cc1cc(COC(=O)CCNC(=O)[C@@H]2OP(=O)(N[C@@H](C)C(=O)OCCc3ccccc3)OCC2(C)C)no1 (stereo partly drawn) [compound 40, (5-methylisoxazol-3-yl)methyl 3-((4R)-5,5-dimethyl-2-oxido-2-(((S)-1-oxo-1-phenethoxypropan-2-yl)amino)-1,3,2-dioxaphosphinane-4-carboxamido)propanoate]",2.77 Fold Increase,< 9.6 min,> 60 min,"t1/2, Mouse Plasma, Diastereoisomer B ([3]; mouse, plasma, 3 µM): <9.6 min; half-life at 3 µM [4, 9]: > 60 min"
"C[C@H](NP1(=O)OCC(C)(C)[C@H](C(=O)NCCC(=O)O)O1)C(=O)OCCc1ccccc1 (stereo partly drawn) [compound 41, 3-((4R)-5,5-dimethyl-2-oxido-2-(((S)-1-oxo-1-phenethoxypropan-2-yl)amino)-1,3,2-dioxaphosphinane-4-carboxamido)propanoic acid]",2.02 Fold Increase,12 min,> 60 min,
"COC(=O)CCNC(=O)[C@@H]1O[P@@](=O)(N[C@@H](C)C(=O)OC2Cc3ccccc3C2)OCC1(C)C [compound 43, 2,3-dihydio-1H-inden-2-yl ((2R,4R)-4-((3-methoxy-3-oxopropyl)carbamoyl)-5,5-dimethyl-2-oxido-1,3,2-dioxaphosphinan-2-yl)-L-alaninate]",1.97 Fold Increase,< 9.6 min,> 60 min,
"COC(=O)CCNC(=O)[C@@H]1OP(=O)(OCCc2cccnc2)OCC1(C)C (stereo partly drawn) [compound 61, methyl 3-((4R)-5,5-dimethyl-2-oxido-2-(2-(pyridin-3-yl)ethoxy)-1,3,2-dioxaphosphinane-4-carboxamido)propanoate]",1.93 Fold Increase,< 9.6 min,> 60 min,"t1/2, Mouse Plasma, Diastereoisomer B ([3]; mouse, plasma, 3 µM): <9.6 min; half-life at 3 µM [4, 9]: > 60 min"
"COC(=O)CCNC(=O)[C@@H]1OP(=O)(OCOC(=O)CN2CCN(C(C)=O)CC2)OCC1(C)C (stereo partly drawn) [compound 80, methyl 3-((4R)-2-((2-(4-acetylpiperazin-1-yl)acetoxy)methoxy)-5,5-dimethyl-2-oxido-1,3,2-dioxaphosphinane-4-carboxamido)propanoate]",1.48 Fold Increase,< 9.6 min,40.2 min,
"COC(=O)CCNC(=O)[C@@H]1OP(=O)(OCOC(=O)c2cnccn2)OCC1(C)C (stereo partly drawn) [compound 86, (((4R)-4-((3-methoxy-3-oxopropyl)carbamoyl)-5,5-dimethyl-2-oxido-1,3,2-dioxaphosphinan-2-yl)oxy)methyl pyrazine-2-carboxylate]",2.45 Fold Increase,< 9.6 min,< 9.6 min,"t1/2, Mouse Plasma, Diastereoisomer B ([3]; mouse, plasma, 3 µM): <9.6 min; half-life at 3 µM [4, 9]: < 9.6 min"
"COC(=O)CCNC(=O)[C@@H]1OP(=O)(OCOC(=O)OC(C)(C)C)OCC1(C)C (stereo partly drawn) [compound 88, methyl 3-((4R)-2-(((tert-butoxycarbonyl)oxy)methoxy)-5,5-dimethyl-2-oxido-1,3,2-dioxaphosphinane-4-carboxamido)propanoate]",2.66 Fold Increase,< 9.6 min,42.6 min,"t1/2, Mouse Plasma, Diastereoisomer B ([3]; mouse, plasma, 3 µM): <9.6 min; half-life at 3 µM [4, 9]: 21.6 min"
"COC(=O)CCNC(=O)[C@@H]1OP(=O)(NCc2ccncc2)OCC1(C)C (stereo partly drawn) [compound 125, methyl 3-((4R)-5,5-dimethyl-2-oxido-2-((pyridin-4-ylmethyl)amino)-1,3,2-dioxaphosphinane-4-carboxamido)propanoate]",1.99 Fold Increase,,,"half-life at 3 µM [3, 10]: < 9.6 min; half-life at 3 µM [4, 11]: > 60 min"
"COC(=O)CCNC(=O)[C@@H]1OP(=O)(NCCN2CCOCC2)OCC1(C)C (stereo partly drawn) [compound 126, methyl 3-((4R)-5,5-dimethyl-2-((2-morpholinoethyl)amino)-2-oxido-1,3,2-dioxaphosphinane-4-carboxamido)propanoate]",1.33 Fold Increase,,,"half-life at 3 µM [3, 10]: < 9.6 min; t1/2, Mouse Plasma, Diastereoisomer B [3, 12]: <9.6 min; half-life at 3 µM [4, 11]: > 60 min; t1/2, Human Plasma, Diastereoisomer B ([4]; Diastereoisomer B): >60 min"
"COC(=O)CCNC(=O)[C@@H]1OP(=O)(NCCc2ccc(F)cc2)OCC1(C)C (stereo partly drawn) [compound 129, methyl 3-((4R)-2-((4-fluorophenethyl)amino)-5,5-dimethyl-2-oxido-1,3,2-dioxaphosphinane-4-carboxamido)propanoate]",0.9 Fold Increase,,,"half-life at 3 µM [3, 10]: < 9.6 min; t1/2, Mouse Plasma, Diastereoisomer B [3, 12]: <9.6 min; half-life at 3 µM [4, 11]: > 60 min; t1/2, Human Plasma, Diastereoisomer B ([4]; Diastereoisomer B): >60 min"
